Test results: patent publication US7816353B2 (Exelixis, Inc., priority 2003, dated 2010)

How the values were obtained:
Assay type in all cases: biochemical
Akt1 = biological target: T1, Akt1 (Homo sapiens, UniProt P31749); assay: Akt1 Kinase Assay (Luciferase-Coupled Chemiluminescent Kinase assay, LCCA); conditions: human Akt1 kinase domain residues R144-A480, activated with PDK1; 1 μM ATP; read-out: Akt-1 IC50
T1 construct: made in house
Protocol: (§1) Kinase activity and compound inhibition are investigated using one or more of the three assay formats described below. The ATP concentrations for each assay are selected to be close to the Michaelis-Menten constant (KM) for each individual kinase. Dose-response experiments are performed at 10 different inhibitor concentrations in a 384-well plate format. The data are fitted to four-parameter equation (2) below; where Y is the observed signal, X is the inhibitor concentration, Min is the background signal in the absence of enzyme (0% enzyme activity), Max is the signal in the absence of inhibitor (100% enzyme activity), IC50 is the inhibitor concentration at 50% enzyme inhibition and H represents the empirical Hill's slope to measure the cooperativity. Typically H is close to unity. Y=Min+(Max−Min)/(1+(X/IC50)^H) Equation (2) p70S6 Kinase Assay
Biochemical activity of Akt1 kinase was assessed using a Luciferase-Coupled Chemiluminescent Kinase assay (LCCA) format. Kinase activity was measured as the percent ATP remaining following the kinase reaction. Remaining ATP was detected by luciferase-luciferin-coupled chemiluminescence. Specifically, the reaction was initiated by mixing test compounds, 1 μM ATP, 5 μM crosstide peptide and 1.3 nM Akt1 (baculovirus expressed human Akt1 kinase domain residues R144-A480, activated with PDK1) in a 20 uL assay buffer (20 mM Tris-HCL pH 7.5, 10 mM MgCl2, 0.01% Triton X-100, 1 mM DTT, 3 mM MnCl2). The mixture is incubated at ambient temperature for 3 hours after which 20 μL luciferase-luciferin mix is added and the chemiluminescent signal read using a Wallac Victor2 reader. The luciferase-luciferin mix consists of 50 mM HEPES, pH 7.8, 8.5 μg/mL oxalic acid (pH 7.8), 5 (or 50) mM DTT, 0.4% Triton X-100, 0.25 mg/mL coenzyme A, 63 uM AMP, 28 μg/mL luciferin and 40,000 units/mL luciferase.

p70S6K = biological target: T2, p70S6K (Homo sapiens, UniProt P23443, T412E); assay: p70S6 Kinase Assay (Luciferase-Coupled Chemiluminescent Kinase assay, LCCA); conditions: human p70S6 kinase domain residues 1-421, T412E; 5 μM ATP; read-out: p70S6K IC50
T2 construct: human p70S6 kinase domain residues 1-421, containing a T412E mutation; made in house
Outline: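 Luciferase-coupled chemiluminescence measured percent ATP remaining after the 2 h kinase reaction at ambient temperature, with ATP near the kinase's KM. Ten inhibitor concentrations were tested. IC50 was obtained from a Hill-equation fit.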

PDK1 = biological target: T3, PDK1 (Homo sapiens, UniProt O15530); assay: PDK1 Kinase Assay (Luciferase-Coupled Chemiluminescent Kinase assay, LCCA); conditions: human PDK1 kinase domain residues M51-T359; 0.5 μM ATP; read-out: PDK-1 IC50
T3 construct: human PDK1 kinase domain residues M51-T359; made in house
T3 sequence (O15530 51-359): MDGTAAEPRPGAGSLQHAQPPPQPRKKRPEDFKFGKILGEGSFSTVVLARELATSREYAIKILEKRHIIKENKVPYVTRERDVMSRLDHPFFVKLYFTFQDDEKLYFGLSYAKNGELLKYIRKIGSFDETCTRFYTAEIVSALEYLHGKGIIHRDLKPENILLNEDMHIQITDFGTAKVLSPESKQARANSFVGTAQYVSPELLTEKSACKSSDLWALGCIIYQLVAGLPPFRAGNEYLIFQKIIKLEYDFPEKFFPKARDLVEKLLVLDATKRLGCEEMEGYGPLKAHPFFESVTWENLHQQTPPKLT
Protocol: as §1
Biochemical activity of PDK1 kinase was assessed using a Luciferase-Coupled Chemiluminescent Kinase assay (LCCA) format. Kinase activity was measured as the percent ATP remaining following the kinase reaction. Remaining ATP was detected by luciferase-luciferin-coupled chemiluminescence. Specifically, the reaction was initiated by mixing test compounds, 0.5 μM ATP, 0.6 μM PDKtide peptide and 6 nM PDK1 (baculovirus expressed human PDK1 kinase domain residues M51-T359) in a 20 uL assay buffer (20 mM Hepes pH 7.5, 1 mM CaCl2, 0.03% CHAPS, 2 mM DTT). The mixture is incubated at ambient temperature for 3 hours after which 20 μL luciferase-luciferin mix is added and the chemiluminescent signal read using a Wallac Victor2 reader. The luciferase-luciferin mix consists of 50 mM HEPES, pH 7.8, 8.5 μg/mL oxalic acid (pH 7.8), 5 (or 50) mM DTT, 0.4% Triton X-100, 0.25 mg/mL coenzyme A, 63 uM AMP, 28 μg/mL luciferin and 40,000 units/mL luciferase.

T1 sequence (P31749 144-480): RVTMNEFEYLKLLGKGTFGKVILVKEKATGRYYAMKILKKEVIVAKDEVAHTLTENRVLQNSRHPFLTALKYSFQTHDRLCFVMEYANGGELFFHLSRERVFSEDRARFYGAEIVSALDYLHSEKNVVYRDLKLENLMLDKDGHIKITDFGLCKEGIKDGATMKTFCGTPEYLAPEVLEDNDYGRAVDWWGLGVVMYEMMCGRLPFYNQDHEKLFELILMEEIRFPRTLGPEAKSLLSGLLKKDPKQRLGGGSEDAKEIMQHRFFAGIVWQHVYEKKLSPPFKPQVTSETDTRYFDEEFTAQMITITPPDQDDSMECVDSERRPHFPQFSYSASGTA
T2 sequence (P23443 1-421 T412E): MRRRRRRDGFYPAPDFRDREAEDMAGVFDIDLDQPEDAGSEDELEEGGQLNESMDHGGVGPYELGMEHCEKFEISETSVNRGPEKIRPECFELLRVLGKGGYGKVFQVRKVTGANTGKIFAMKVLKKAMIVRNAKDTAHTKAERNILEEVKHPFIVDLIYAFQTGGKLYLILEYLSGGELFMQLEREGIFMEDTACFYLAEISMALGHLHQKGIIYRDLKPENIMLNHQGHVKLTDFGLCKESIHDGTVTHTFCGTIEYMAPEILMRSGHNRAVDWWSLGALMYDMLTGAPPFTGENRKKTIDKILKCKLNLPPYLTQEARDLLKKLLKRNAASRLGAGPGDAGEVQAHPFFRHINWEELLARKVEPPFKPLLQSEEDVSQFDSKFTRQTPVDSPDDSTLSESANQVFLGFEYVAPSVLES

IC50 (Akt1) [nM]	IC50 (p70S6K) [nM]	IC50 (PDK1) [nM]	SMILES
> 2000	< 50	> 2000	CCOC(=O)c1sc(NC(=O)CSc2nc(N)nc(SC)c2C#N)c(C#N)c1C [Example 28, ethyl 5-[({[2-amino-5-cyano-6-(methylthio)pyrimidin-4-yl]thio}acetyl)amino]-4-cyano-3-methylthiophene-2-carboxylate]
> 2000	< 50	> 2000	CSc1nc(N)nc(SCC(=O)Nc2ccc(F)c(C(F)(F)F)c2)c1C#N [Example 31, 2-{[2-amino-5-cyano-6-(methylthio)pyrimidin-4-yl]thio}-N-[4-fluoro-3-(triuoromethyl)phenyl]acetamide]
> 2000	< 50	> 2000	CSc1cc(OCC(=O)Nc2cccc(C(F)(F)F)c2)nc(N)n1
> 2000	< 50	> 2000	CSc1nc(N)nc(N(C)[C@@H](C)C(=O)Nc2cccc(Br)c2)c1C#N [Example 133, N~2~-[2-amino-5cyano-6-(methylthio)pyrimidin-4-yl]-N-(3-bromophenyl)-N~2~-methyl-L-alaninamide]
> 2000	< 50	> 2000	CSc1nc(N)nc(N[C@@H](C)C(=O)Nc2cc(OCCN(C)C)cc(C(F)(F)F)c2)c1C#N [Example 137, N~2~-[2-amino-5-cyano-6-(methylthio)pyrimidin-4-yl]-N-[3-{[2-(dimethylamino)ethyl]oxy}-5-(trifluoromethyl)phenyl]-L-alaninamide]
> 2000	< 50	> 2000	CSc1nc(N)nc(SCC(=O)Nc2cc(C(F)(F)F)ccn2)c1C#N [Example 37, 2-{[2-amino-5-cyano-6-(methylthio)pyrimidin-4-yl]thio}-N-[4-(trifluoromethyl)pyridin-2-yl]acetamide]
> 2000	50 to 500	> 2000	CSc1nc(N)nc(SCC(=O)c2ccc3c(c2)NC(=O)CO3)c1C#N [Example 49, 2-amino-4-(methylthio)-6-{[2-oxo-2-(3-oxo-3,4-dihydro-2H-1,4-benzoxazin-6-yl)ethyl]thio}pyrimidine-5-carbonitrile]
> 2000	< 50	> 2000	CSc1nc(N)nc(SCC(=O)Nc2ccc(Cl)c(C(F)(F)F)c2)c1C#N [Example 34, 2-{[2-amino-5-cyano-6-(methylthio)pyrimidin-4-yl]thio}-N-[4-chloro-3-(trifluoromethyl)phenyl]acetamide]
> 2000	50 to 500	> 2000	COc1nc(N)nc(NNC(=O)Nc2cccc(C(F)(F)F)c2)c1C#N [Example 140, 2-[2-amino-5-cyano-6-(methyloxy)pyrimidin-4-yl]-N-[3-(trifluoromethyl)phenyl]hydrazinecarboxamide]
> 2000	< 50	> 2000	CCCCOc1cccc(NC(=O)CSc2nc(N)nc(SC)c2C#N)c1 [Example 22, 2-{[2-amino-5-cyano-6-(methylthio)pyrimidin-4-yl]thio}-N-[3-(butyloxy)phenyl]acetamide]
> 2000	< 50	> 2000	CSc1cc(NCC(=O)Nc2cccc(C(F)(F)F)c2)nc(N)n1 [Example 5]
> 2000	50 to 500	> 2000	CSc1nc(N)nc(NCC(=O)Nc2cccc(C(F)(F)F)c2)c1C#N [Example 20, N^2-[2-amino-5-cyano-6-(methylthio)pyrimidin-4-yl]-N-[3-(trifluoromethyl)phenyl]glycinamide]
> 2000	< 50	> 2000	CNc1cc(COC(=O)Nc2cccc(C(F)(F)F)c2)nc(SC)n1 [Example 39, [6-(methylamino)-2-(methylthio)pyrimidin-4-yl]methyl [3-(trifluoromethyl)phenyl]carbamate]
> 2000	< 50	> 2000	Cc1nc(OCC(=O)Nc2cccc(C(F)(F)F)c2)c(C#N)c(C)c1[N+](=O)[O-] [Example 1, 2-[(3-cyano-4,6-dimethyl-5-nitropyridin-2-yl)oxy]-N-[3-(trifluoromethyl)phenyl]acetamide]
> 2000	< 50	> 2000	CSc1cc(COC(=O)Nc2cccc(C(F)(F)F)c2)nc(NCc2ccccc2)n1 [Example 38, {6-(methylthio)-2-[(phenylmethyl)amino]pyrimidin-4-yl}methyl [3-(trifluoromethyl)phenyl]carbamate]
> 2000	< 50	> 2000	CSc1nc(N)nc(SCC(=O)Nc2cccc(C(F)(F)F)n2)c1C#N [Example 36, 2-{[2-amino-5-cyano-6-(methylthio)pyrimidin-4-yl]thio}-N-[6-(trifluoromethyl)pyridin-2-yl]acetamide]
> 2000	< 50	> 2000	CSc1nc(N)nc(N(C)[C@@H](C)C(=O)Nc2cc(C(=O)NCCN(C)C)cc(C(F)(F)F)c2)c1C#N [Example 130, 3-({N-[2-amino5-cyano-6-(methylthio)pyrimidin-4-yl]-N-methyl-L-alanyl}amino)-N-[2-(dimethylamino)ethyl]-5-(trifluoromethyl)benzamide]
> 2000	< 50	> 2000	CSc1nc(N)nc(SCC(=O)n2nc(C)cc2C)c1C#N [Example 26, 2-amino-4-{[2-(3,5-dimethyl-1H-pyrazol-1-yl)-2-oxoethyl]thio}-6-(methylthio)pyrimidine-5-carbonitrile]
> 2000	< 50	> 2000	CSc1nc(N)nc(SCC(=O)Nc2cccc(C(F)(F)F)c2)c1C#N [Example 21, 2-{[2-amino-5-cyano-6-(methylthio)pyrimidin-4-yl]thio}-N-[3-(trifluoromethyl)phenyl]acetamide]
